Key:
PIM1 = PIM1 (Homo sapiens, UniProt P11309); assay: KinaseGlo Pim1 ATP depletion assay; assay type: biochemical
Method in brief: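 2.5 nM PIM1 preincubated 15 min with compound and 40 μM BAD peptide in 50 mM HEPES pH 7.5, 5 mM MgCl2, 1 mM DTT, 0.05% BSA, 2.5% DMSO. The reaction was started with 20 μM ATP (final) and run to about 50% ATP depletion. Remaining ATP read by KinaseGlo Plus luminescence to give IC50.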

PIM2 = PIM2 (Homo sapiens, UniProt Q9P1W9); assay: KinaseGlo Pim2 ATP depletion assay; assay type: biochemical
Sequence of PIM2 (Q9P1W9 whole entry): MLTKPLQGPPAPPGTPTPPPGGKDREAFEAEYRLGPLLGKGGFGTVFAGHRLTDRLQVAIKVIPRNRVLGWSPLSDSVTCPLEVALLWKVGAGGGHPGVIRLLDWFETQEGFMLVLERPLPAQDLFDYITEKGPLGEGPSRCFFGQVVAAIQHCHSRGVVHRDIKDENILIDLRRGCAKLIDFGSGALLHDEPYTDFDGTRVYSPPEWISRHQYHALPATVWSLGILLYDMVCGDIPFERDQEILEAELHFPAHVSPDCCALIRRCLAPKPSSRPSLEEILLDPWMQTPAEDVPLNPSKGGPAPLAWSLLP
Method in brief: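 Luminescent ATP-depletion read-out of PIM2 phosphorylating BAD peptide (RSRHSSYPAGT-OH). Final conditions: 5 nM PIM2, 4 μM ATP, 10 μM peptide, 2.5% DMSO in 50 mM HEPES pH 7.5, 5 mM MgCl2, 1 mM DTT, 0.05% BSA. Enzyme–peptide preincubated 15 min with compound; reaction run to ~50% ATP depletion.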

PIM3 = PIM3 (Homo sapiens, UniProt Q86V86); assay: KinaseGlo Pim3 ATP depletion assay; assay type: biochemical
Method in brief: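 Kinase was preincubated 15 min with BAD peptide in HEPES pH 7.5/MgCl2/DTT/BSA before ATP was added. Final concentrations were 40 μM ATP, 100 μM BAD peptide and 2.5% DMSO, with 5 nM enzyme. The reaction ran to ~50% ATP depletion and remaining ATP was read by KinaseGlo Plus luminescence.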

GSK3β = GSK3β (Homo sapiens, UniProt P49841); assay: GSK3β ATP depletion assay; assay type: biochemical; conditions: read-out: GSK3b IC50
Sequence of GSK3β (P49841 whole entry, species assumed): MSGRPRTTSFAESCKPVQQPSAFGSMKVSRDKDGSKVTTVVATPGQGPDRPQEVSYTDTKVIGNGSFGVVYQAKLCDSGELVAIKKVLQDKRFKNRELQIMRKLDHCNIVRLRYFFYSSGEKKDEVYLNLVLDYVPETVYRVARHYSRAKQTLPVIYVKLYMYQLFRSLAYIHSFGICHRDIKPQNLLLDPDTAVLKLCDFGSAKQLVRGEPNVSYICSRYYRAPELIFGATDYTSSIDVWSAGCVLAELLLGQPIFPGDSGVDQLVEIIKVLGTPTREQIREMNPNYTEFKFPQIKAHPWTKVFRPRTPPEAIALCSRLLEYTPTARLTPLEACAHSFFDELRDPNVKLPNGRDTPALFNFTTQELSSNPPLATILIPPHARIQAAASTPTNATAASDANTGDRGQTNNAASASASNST
Method in brief: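 Human GSK3β (5 nM) preincubated 15 min with 10 μM biotinylated phospho-CREB peptide in pH 7.5 Tris buffer (15 mM MgCl2, 1 mM DTT, 0.1% BSA, 2.5% DMSO). Reaction started with 2 μM ATP and run to about 50% ATP depletion. Remaining ATP measured by KinaseGlo luminescence.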

[1] = system: KMS11 (human myeloma cell line); assay: Cell proliferation assay (CellTiter-Glo), KMS11; assay type: cell-based; conditions: Homo sapiens, KMS-11; KMS11-Luc cells
Method in brief: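 KMS11 cells in IMDM with 10% FBS and sodium pyruvate, seeded at 2000 cells/well on assay day. Compound added at 2× to equal volume of cells, incubated 3 days at 37° C. Viability read by CellTiter-Glo luminescence; EC50 derived.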

Sequence of PIM1 (P11309 whole entry): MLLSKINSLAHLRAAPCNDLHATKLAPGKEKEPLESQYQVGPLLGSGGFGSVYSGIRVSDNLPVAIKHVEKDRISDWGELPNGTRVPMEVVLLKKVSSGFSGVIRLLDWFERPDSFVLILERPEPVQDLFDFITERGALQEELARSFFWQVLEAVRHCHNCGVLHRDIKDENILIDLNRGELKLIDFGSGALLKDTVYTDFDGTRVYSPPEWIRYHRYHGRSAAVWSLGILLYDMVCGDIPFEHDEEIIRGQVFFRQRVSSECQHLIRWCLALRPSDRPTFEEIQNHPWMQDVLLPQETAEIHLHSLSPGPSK

SMILES | IC50 (PIM1) [nM] | IC50 (PIM2) [nM] | IC50 (PIM3) [nM] | IC50 (GSK3β) [nM] | EC50 [1] [µM]
Nc1ccc(-c2c(F)cccc2F)nc1C(=O)Nc1cnccc1[C@H]1C[C@@H](N)[C@@]2(O)CCC[C@H]2O1 [Example 215, 3-amino-N-(4-((2R,4R,4aS,7aR)-4-amino-4a-hydroxyoctahydrocyclopenta[b]pyran-2-yl)pyridin-3-yl)-6-(2,6-difluorophenyl)picolinamide] | 0.6 | 2.6 | 4 | 252 | 0.8
CC(C)NC(=O)c1ccc(F)c(-c2nc(C(=O)Nc3cnccc3[C@H]3C[C@@H](O)[C@](C)(O)[C@@H](C)O3)ccc2F)c1 [Example 105, N-(4-((2R,4R,5S,6R)-4,5-dihydroxy-5,6-dimethyltetrahydro-2H-pyran-2-yl)pyridin-3-yl)-5-fluoro-6-(2-fluoro-5-(isopropylcarbamoyl)phenyl)picolinamide] | 1 | 50 | 6 | 1180 | 4.7
C[C@H]1O[C@@H](c2ccncc2NC(=O)c2csc(-c3c(F)cccc3F)n2)C[C@@H](N)[C@@H]1O [Example 114, N-(4-((2R,4R,5S,6R)-4-amino-5-hydroxy-6-methyltetrahydro-2H-pyran-2-yl)pyridin-3-yl)-2-(2,6-difluorophenyl)thiazole-4-carboxamide] | 4 | 144 | 14 | 652 | 1.5
Nc1cc(F)c(-c2c(F)cccc2F)nc1C(=O)Nc1cnccc1[C@H]1C[C@@H](O)[C@H](O)[C@@H](CCl)O1 [Example 35, 3-amino-N-(4-((2R,4R,5S,6S)-6-(chloromethyl)-4,5-dihydroxytetrahydro-2H-pyran-2-yl)pyridin-3-yl)-6-(2,6-difluorophenyl)-5-fluoropicolinamide] | 1 | 1 | 1 | 88 | 1
C[C@H]1O[C@@H](c2ccncc2NC(=O)c2ccc(F)c(-c3c(F)cccc3F)n2)[C@H](F)[C@@H](O)[C@]1(C)O (stereo in doubt) [Example 69, 6-(2,6-difluorophenyl)-5-fluoro-N-(4-((2S,3R,4S,5S,6R)-3-fluoro-4,5-dihydroxy-5,6-dimethyltetrahydro-2H-pyran-2-yl)pyridin-3-yl)picolinamide] | 4 | 497 | 53 | 1800 | 4
N#C[C@H]1OC(c2ccncc2NC(=O)c2nc(-c3c(F)cccc3F)c(F)cc2N)=C[C@@H](O)[C@@H]1O [Example 4, 3-amino-N-(4-((2R,3S,4R)-2-cyano-3,4-dihydroxy-3,4-dihydro-2H-pyran-6-yl)pyridin-3-yl)-6-(2,6-difluorophenyl)-5-fluoropicolinamide] | 1.1 | 4 | 3.1 | 268 | 7.24
O=C(Nc1cnccc1C1OCCCO1)c1csc(-c2c(F)cccc2F)n1 [Example 117, N-(4-(1,3-dioxan-2-yl)pyridin-3-yl)-2-(2,6-difluorophenyl)thiazole-4-carboxamide] | 8 | 2480 | 40 | 2730 | 9.5
CC1(C)O[C@@H](c2ccncc2NC(=O)c2csc(-c3c(F)cccc3F)n2)C[C@H](O)[C@@H]1O [Example 88, 2-(2,6-difluorophenyl)-N-(4-((2R,4S,5S)-4,5-dihydroxy-6,6-dimethyltetrahydro-2H-pyran-2-yl)pyridin-3-yl)thiazole-4-carboxamide] | 1 | 80 | 5 | 10 | 9.7
O=C(Nc1cnccc1[C@H]1C[C@@H](O)[C@H](O)[C@@H](CO)O1)c1csc(-c2c(F)cccc2F)n1 [Example 80, 2-(2,6-difluorophenyl)-N-(4-((2R,4R,5S,6R)-4,5-dihydroxy-6-(hydroxymethyl)tetrahydro-2H-pyran-2-yl)pyridin-3-yl)thiazole-4-carboxamide] | 44 | 4920 | 171 | 1230 | > 10

From patent US20130109682A1, “CYCLIC ETHER COMPOUNDS USEFUL AS KINASE INHIBITORS” (NOVARTIS AG, priority 2010, published 2013)
